Test results as given in the NIST ThermoML archive (doi:10.1016/j.jct.2006.01.008).

Experiment: mn = molality of the nth substance listed, in mol/kg
Settings: Liquid

O=[N+]([O-])[O-].[Li+] [lithium nitrate] + CO
Settings	mass density [kg/m3]
298.15 K, 124 kPa, m1 = 0.1551	794.38
298.15 K, 125 kPa, m1 = 0.2943	800.98
298.15 K, 254 kPa, m1 = 0.8904	826.51
298.15 K, 4856 kPa, m1 = 0.1551	798.86
298.15 K, 5035 kPa, m1 = 0.2943	805.54
298.15 K, 5745 kPa, m1 = 0.8904	831.27
298.15 K, 10235 kPa, m1 = 0.2943	810.19
298.15 K, 10235 kPa, m1 = 0.8904	835.02
298.15 K, 11542 kPa, m1 = 0.1551	804.92
298.15 K, 15247 kPa, m1 = 0.2943	814.48
298.15 K, 15625 kPa, m1 = 0.8904	839.35
298.15 K, 16024 kPa, m1 = 0.1551	808.79
298.15 K, 19745 kPa, m1 = 0.1551	811.89
298.15 K, 20056 kPa, m1 = 0.2943	818.43
298.15 K, 20856 kPa, m1 = 0.8904	843.37
298.15 K, 25158 kPa, m1 = 0.2943	822.44
298.15 K, 25656 kPa, m1 = 0.8904	846.91
298.15 K, 25856 kPa, m1 = 0.1551	816.76
298.15 K, 30142 kPa, m1 = 0.1551	820.02
298.15 K, 30235 kPa, m1 = 0.2943	826.24
298.15 K, 30254 kPa, m1 = 0.8904	850.16
298.15 K, 35626 kPa, m1 = 0.8904	853.78
298.15 K, 35751 kPa, m1 = 0.2943	830.16
298.15 K, 35785 kPa, m1 = 0.1551	824.09
298.15 K, 39875 kPa, m1 = 0.2943	832.95
298.15 K, 39897 kPa, m1 = 0.1551	826.91
298.15 K, 39957 kPa, m1 = 0.8904	856.57
298.27 K, 205 kPa, m1 = 3.614	928.48
298.27 K, 5001 kPa, m1 = 3.614	931.92
298.27 K, 10011 kPa, m1 = 3.614	935.38
298.27 K, 15005 kPa, m1 = 3.614	938.69
298.27 K, 19984 kPa, m1 = 3.614	941.89
298.27 K, 25008 kPa, m1 = 3.614	945.02
298.27 K, 30003 kPa, m1 = 3.614	948.03
298.27 K, 35001 kPa, m1 = 3.614	950.96
298.27 K, 40010 kPa, m1 = 3.614	953.79
298.28 K, 189 kPa, m1 = 1.803	863.5
298.28 K, 205 kPa, m1 = 0.5393	811.38
298.28 K, 4985 kPa, m1 = 0.5393	815.76
298.28 K, 4986 kPa, m1 = 1.803	867.42
298.28 K, 9983 kPa, m1 = 1.803	871.31
298.28 K, 9995 kPa, m1 = 0.5393	820.13
298.28 K, 14986 kPa, m1 = 1.803	875.06
298.28 K, 15005 kPa, m1 = 0.5393	824.3
298.28 K, 19989 kPa, m1 = 1.803	878.65
298.28 K, 19996 kPa, m1 = 0.5393	828.26
298.28 K, 24989 kPa, m1 = 1.803	882.11
298.28 K, 24994 kPa, m1 = 0.5393	832.06
298.28 K, 29989 kPa, m1 = 1.803	885.44
298.28 K, 29991 kPa, m1 = 0.5393	835.71
298.28 K, 34990 kPa, m1 = 1.803	888.67
298.28 K, 34996 kPa, m1 = 0.5393	839.23
298.28 K, 39995 kPa, m1 = 0.5393	842.62
298.28 K, 39997 kPa, m1 = 1.803	891.8
323.15 K, 215 kPa, m1 = 0.8904	804.21
323.15 K, 321 kPa, m1 = 0.2943	777.56
323.15 K, 412 kPa, m1 = 0.1551	770.76
323.15 K, 5026 kPa, m1 = 0.8904	809.05
323.15 K, 5087 kPa, m1 = 0.2943	782.63
323.15 K, 5784 kPa, m1 = 0.1551	776.58
323.15 K, 9859 kPa, m1 = 0.1551	780.81
323.15 K, 10214 kPa, m1 = 0.8904	814.03
323.15 K, 10862 kPa, m1 = 0.2943	788.49
323.15 K, 15038 kPa, m1 = 0.2943	792.54
323.15 K, 15864 kPa, m1 = 0.8904	819.19
323.15 K, 16173 kPa, m1 = 0.1551	787.05
323.15 K, 19786 kPa, m1 = 0.1551	790.45
323.15 K, 20247 kPa, m1 = 0.8904	823
323.15 K, 20742 kPa, m1 = 0.2943	797.81
323.15 K, 25168 kPa, m1 = 0.2943	801.7
323.15 K, 25632 kPa, m1 = 0.8904	827.45
323.15 K, 26297 kPa, m1 = 0.1551	796.26
323.15 K, 30058 kPa, m1 = 0.8904	830.92
323.15 K, 30685 kPa, m1 = 0.2943	806.29
323.15 K, 31035 kPa, m1 = 0.1551	800.23
323.15 K, 35027 kPa, m1 = 0.2943	809.7
323.15 K, 35214 kPa, m1 = 0.8904	834.74
323.15 K, 35748 kPa, m1 = 0.1551	803.97
323.15 K, 39867 kPa, m1 = 0.1551	807.06
323.15 K, 39867 kPa, m1 = 0.8904	837.98
323.15 K, 40002 kPa, m1 = 0.2943	813.4
323.23 K, 206 kPa, m1 = 3.614	908.05
323.23 K, 211 kPa, m1 = 0.5393	788.49
323.23 K, 234 kPa, m1 = 1.803	842.01
323.23 K, 4982 kPa, m1 = 3.614	911.88
323.23 K, 4988 kPa, m1 = 1.803	846.4
323.23 K, 4989 kPa, m1 = 0.5393	793.5
323.23 K, 9987 kPa, m1 = 3.614	915.71
323.23 K, 9991 kPa, m1 = 0.5393	798.45
323.23 K, 10005 kPa, m1 = 1.803	850.8
323.23 K, 14993 kPa, m1 = 3.614	919.41
323.23 K, 14999 kPa, m1 = 0.5393	803.13
323.23 K, 15005 kPa, m1 = 1.803	854.96
323.23 K, 19987 kPa, m1 = 3.614	922.95
323.23 K, 19992 kPa, m1 = 1.803	858.94
323.23 K, 19999 kPa, m1 = 0.5393	807.57
323.23 K, 24991 kPa, m1 = 3.614	926.36
323.23 K, 24995 kPa, m1 = 1.803	862.77
323.23 K, 24997 kPa, m1 = 0.5393	811.8
323.23 K, 29993 kPa, m1 = 0.5393	815.84
323.23 K, 29998 kPa, m1 = 3.614	929.67
323.23 K, 30014 kPa, m1 = 1.803	866.46
323.23 K, 34988 kPa, m1 = 0.5393	819.71
323.23 K, 34989 kPa, m1 = 3.614	932.86
323.23 K, 34999 kPa, m1 = 1.803	869.98
323.23 K, 39993 kPa, m1 = 3.614	935.96
323.23 K, 39995 kPa, m1 = 0.5393	823.45
323.23 K, 39997 kPa, m1 = 1.803	873.39
348.15 K, 381 kPa, m1 = 0.1551	746.07
348.15 K, 409 kPa, m1 = 0.8904	781.31
348.15 K, 425 kPa, m1 = 0.2943	753.31
348.15 K, 5068 kPa, m1 = 0.1551	751.95
348.15 K, 5124 kPa, m1 = 0.2943	759.07
348.15 K, 5124 kPa, m1 = 0.8904	786.59
348.15 K, 10572 kPa, m1 = 0.2943	765.41
348.15 K, 10865 kPa, m1 = 0.8904	792.73
348.15 K, 10875 kPa, m1 = 0.1551	758.86
348.15 K, 15038 kPa, m1 = 0.1551	763.56
348.15 K, 15324 kPa, m1 = 0.2943	770.66
348.15 K, 15326 kPa, m1 = 0.8904	797.27
348.15 K, 19875 kPa, m1 = 0.1551	768.75
348.15 K, 20125 kPa, m1 = 0.2943	775.7
348.15 K, 20875 kPa, m1 = 0.8904	802.64
348.15 K, 25412 kPa, m1 = 0.8904	806.8
348.15 K, 25632 kPa, m1 = 0.2943	781.14
348.15 K, 26038 kPa, m1 = 0.1551	774.93
348.15 K, 30057 kPa, m1 = 0.2943	785.25
348.15 K, 30587 kPa, m1 = 0.8904	811.29
348.15 K, 31412 kPa, m1 = 0.1551	779.95
348.15 K, 35231 kPa, m1 = 0.8904	815.1
348.15 K, 35748 kPa, m1 = 0.1551	783.73
348.15 K, 35942 kPa, m1 = 0.2943	790.36
348.15 K, 39511 kPa, m1 = 0.2943	793.25
348.15 K, 39784 kPa, m1 = 0.1551	787.04
348.15 K, 40005 kPa, m1 = 0.8904	818.78
